Assay results taken from patent US20120077854A1, “COMPOSITIONS AND METHODS FOR MODULATING RETINOL BINDING TO RETINOL BINDING PROTEIN 4 (RBP4)” (priority 2009, published 2012).
pIC50: −log10 of the molar value.

target: RBP4 (Homo sapiens, UniProt P02753); experiment: HTRF competition assay: displacement of Cy5-labeled retinol from RBP4; assay type: binding; conditions: 10 nM biotin-labeled RBP4, streptavidin-Europium cryptate 1 nM, room temperature 30 min
Description: To determine the binding affinity of test compounds for RBP4, a homogeneous time resolved fluorescence (HTRF) assay was developed. The assay was a competition experiment measuring the interaction of RBP4 with the known RBP4 ligand retinol. Cy5-labeled retinol was incubated with 10 nM biotin-labeled RBP4 protein and streptavidin-Europium cryptate (1 nM). Test or control compounds were added to the reaction mixture and incubated at room temperature for 30 min. The HTRF signal was determined by monitoring the emission at 665 nm and […]. The ratio between the 665 nM signal and the […] signal was used to determine the binding of Cy5-retinol to RBP4. The ability of test or control compounds to displace Cy5-retinol from RBP4 was used to determine their potency for RBP4. […]

Going from `COC(=O)Cc1csc(-c2cc(C(F)(F)F)cc(C(F)(F)F)c2)n1` [Example 1, Methyl 2-(2-(3,5-bis(trifluoromethyl)phenyl)thiazol-4-yl)acetate] to `O=C(O)Cc1csc(-c2cc(C(F)(F)F)cc(C(F)(F)F)c2)n1` [Example 2, 2-(2-(3,5-Bis(trifluoromethyl)phenyl)thiazol-4-yl)acetic acid], the pIC50 rises from 5.61 to 7.07 (1.46 log units). The second is the more potent here.

Compared with `COC(=O)Cc1nc(-c2cc(C(F)(F)F)cc(C(F)(F)F)c2)no1` [Example 3, Methyl 2-(3-(3,5-bis(trifluoromethyl)phenyl)-1,2,4-oxadiazol-5-yl)acetate], `COC(=O)Cc1nc(-c2cc(C(F)(F)F)cc(C(F)(F)F)c2)co1` [Example 5, Methyl 2-(4-(3,5-bis(trifluoromethyl)phenyl)oxazol-2-yl)acetate] is 0.57 log units higher in pIC50: 5.46 for the first, 6.03 for the second.

Compared with `COC(=O)Cc1coc(-c2cc(C(F)(F)F)cc(C(F)(F)F)c2)n1` [Example 4, Methyl 2-(2-(3,5-bis(trifluoromethyl)phenyl)oxazol-4-yl)acetate], `O=C(O)Cc1coc(-c2cc(C(F)(F)F)cc(C(F)(F)F)c2)n1` [Example 6, 2-(2-(3,5-Bis(trifluoromethyl)phenyl)oxazol-4-yl) acetic acid] is 1.48 log units higher in pIC50: 5.55 for the first, 7.03 for the second.

Compared with `O=C(O)Cc1nc(-c2cc(C(F)(F)F)cc(C(F)(F)F)c2)co1` [Example 7, 2-(4-(3,5-Bis(trifluoromethyl)phenyl)oxazol-2-yl)acetic acid], `O=C(O)Cc1nc(-c2cc(F)cc(C(F)(F)F)c2)co1` [Example 12, 2-(4-(3-Fluoro-5-(trifluoromethyl)phenyl)oxazol-2-yl)acetic acid] is 0.37 log units lower in pIC50: 7.51 for the first, 7.14 for the second.

First: O=C(O)Cc1csc(-c2cc(Cl)cc(C(F)(F)F)c2)n1 [Example 8, 2-(2-(3-Chloro-5-(trifluoromethyl)phenyl)thiazol-4-yl)acetic acid]
Second: O=C(O)Cc1csc(-c2cc(F)cc(C(F)(F)F)c2)n1 [Example 20, 2-(2-(3-Fluoro-5-(trifluoromethyl)phenyl)thiazol-4-yl)acetic acid]
The pIC50 of the first is 0.29 log units higher: 7.06 for the first, 6.77 for the second. The first is the more potent here.

Going from `Cc1sc(CC(=O)O)nc1-c1cc(C(F)(F)F)cc(C(F)(F)F)c1` [Example 9, 2-(4-(3,5-Bis(trifluoromethyl)phenyl)-5-methylthiazol-2-yl)acetic acid] to `Cc1oc(CC(=O)O)nc1-c1cc(C(F)(F)F)cc(C(F)(F)F)c1` [Example 11, 2-(4-(3,5-Bis(trifluoromethyl)phenyl)-5-methyloxazol-2-yl)acetic acid], the pIC50 falls from 6.63 to 5.80 (0.83 log units). The first is the more potent here.

`O=C(O)Cc1csc(-c2ccc(Cl)c(C(F)(F)F)c2)n1` [Example 10, 2-(2-(4-Chloro-3-(trifluoromethyl)phenyl)thiazol-4-yl)acetic acid] and `Cc1ccc(-c2nc(CC(=O)O)cs2)cc1C(F)(F)F` [Example 17, 2-(2-(4-Methyl-3-(trifluoromethyl)phenyl)thiazol-4-yl)acetic acid] are within 0.2 log units of each other in pIC50: 7.20 for the first, 7.07 for the second.

Compared with `O=C(O)Cc1nc(-c2cc(F)cc(C(F)(F)F)c2)cs1` [Example 13, 2-(4-(3-Fluoro-5-(trifluoromethyl)phenyl)thiazol-2-yl)acetic acid], `O=C(O)Cc1coc(-c2cc(F)cc(C(F)(F)F)c2)n1` [Example 19, 2-(2-(3-Fluoro-5-(trifluoromethyl)phenyl)oxazol-4-yl)acetic acid] is 0.86 log units lower in pIC50: 7.04 for the first, 6.18 for the second. The first is the more potent here.

First: COc1cc(-c2nc(CC(=O)O)cs2)cc(C(F)(F)F)c1 [Example 14, 2-(2-(3-Methoxy-5-(trifluoromethyl)phenyl)thiazol-4-yl)acetic acid]
Second: O=C(O)Cc1csc(-c2cc(Br)cc(C(F)(F)F)c2)n1 [Example 28, 2-(2-(3-Bromo-5-(trifluoromethyl)phenyl)thiazol-4-yl)acetic acid]
The pIC50 of the first is 0.24 log units lower: 7.06 for the first, 7.30 for the second.

First: COc1cc(-c2nc(CC(=O)O)co2)cc(C(F)(F)F)c1 [Example 15, 2-(2-(3-Methoxy-5-(trifluoromethyl)phenyl)oxazol-4-yl)acetic acid]
Second: O=C(O)Cc1coc(-c2cc(Br)cc(C(F)(F)F)c2)n1 [Example 37, 2-(2-(3-Bromo-5-(trifluoromethyl)phenyl)oxazol-4-yl)acetic acid]
The pIC50 of the first is higher: 6.61 for the first, < 5.00 for the second. The first is the more potent here.

Going from `O=C(O)C(O)c1csc(-c2cc(C(F)(F)F)cc(C(F)(F)F)c2)n1` (stereo not drawn) [Example 16, 2-(2-(3,5-Bis(trifluoromethyl)phenyl)thiazol-4-yl)-2-hydroxyacetic acid] to `O=C(O)c1nc(-c2cc(C(F)(F)F)cc(C(F)(F)F)c2)cs1` [Example 33, 4-(3,5-Bis-trifluoromethyl-phenyl)-thiazole-2-carboxylic acid], the pIC50 falls from 6.85 to 5.97 (0.88 log units).

Going from `O=C(O)Cc1csc(-c2ccc(F)c(C(F)(F)F)c2)n1` [Example 18, 2-(2-(4-Fluoro-3-(trifluoromethyl)phenyl)thiazol-4-yl)acetic acid] to `COc1ccc(-c2nc(CC(=O)O)cs2)cc1C(F)(F)F` [Example 26, 2-(2-(4-Methoxy-3-(trifluoromethyl)phenyl)thiazol-4-yl)acetic acid], the pIC50 rises from 6.36 to 6.71 (0.35 log units). The second is the more potent here.

Going from `O=C(O)Cc1csc(-c2cc(C(F)(F)F)ccc2Cl)n1` [Example 21, 2-(2-(2-Chloro-5-(trifluoromethyl)phenyl)thiazol-4-yl)acetic acid] to `O=C(O)Cc1csc(-c2cccc(C(F)(F)F)c2Cl)n1` [Example 27, 2-(2-(2-Chloro-3-(trifluoromethyl)phenyl)thiazol-4-yl)acetic acid], the pIC50 falls from 5.98 to 5.62 (0.36 log units).

First: O=C(O)Cc1coc(-c2cccc(C(F)(F)F)c2Cl)n1 [Example 22, 2-(2-(2-Chloro-3-(trifluoromethyl)phenyl)oxazol-4-yl)acetic acid]
Second: O=C(O)Cc1coc(-c2cc(C(F)(F)F)ccc2Cl)n1 [Example 36, 2-(2-(2-Chloro-5-(trifluoromethyl)phenyl)oxazol-4-yl)acetic acid]
The pIC50 of the first is 0.73 log units higher: 5.78 for the first, 5.05 for the second.

Compared with `COc1ccc(-c2nc(CC(=O)O)co2)cc1C(F)(F)F` [Example 23, 2-(2-(4-Methoxy-3-(trifluoromethyl)phenyl)oxazol-4-yl)acetic acid], `O=C(O)Cc1coc(-c2ccc(F)c(C(F)(F)F)c2)n1` [Example 24, 2-(2-(4-Fluoro-3-(trifluoromethyl)phenyl)oxazol-4-yl)acetic acid] is 0.62 log units lower in pIC50: 6.76 for the first, 6.14 for the second. The first is the more potent here.

`O=C(O)Cc1cc(-c2ccc(Cl)c(C(F)(F)F)c2)no1` [Example 25, 2-(3-(4-Chloro-3-(trifluoromethyl)phenyl)isoxazol-5-yl)acetic acid] and `FC(F)(F)c1cc(-c2nc(Cc3nn[nH]n3)cs2)ccc1Cl` [Example 35, 5-[2-(4-Chloro-3-trifluoromethyl-phenyl)-thiazol-4-ylmethyl]-2H-tetrazole] are within 0.2 log units of each other in pIC50: 6.55 for the first, 6.71 for the second.

Compared with `O=C(O)Cc1coc(-c2cc(F)c(F)c(C(F)(F)F)c2)n1` [Example 29, 2-(2-(3,4-Difluoro-5-(trifluoromethyl)phenyl)oxazol-4-yl)acetic acid], `O=C(O)Cc1csc(-c2cc(F)c(F)c(C(F)(F)F)c2)n1` [Example 30, 2-(2-(3,4-Difluoro-5-(trifluoromethyl)phenyl)thiazol-4-yl)acetic acid] is 0.49 log units higher in pIC50: 6.58 for the first, 7.07 for the second.

`O=C(O)Cc1csc(-c2cc(C(F)F)cc(C(F)(F)F)c2)n1` [Example 32, 2-(2-(3-(Difluoromethyl)-5-(trifluoromethyl)phenyl)thiazol-4-yl)acetic acid] and `FC(F)(F)c1cc(-c2nc(Cc3nn[nH]n3)cs2)cc(C(F)(F)F)c1` [Example 34, 5-[2-(3,5-Bis-trifluoromethyl-phenyl)-thiazol-4-ylmethyl]-2H-tetrazole] are within 0.2 log units of each other in pIC50: 6.87 for the first, 7.01 for the second.
